{"source": "patent US20060116401A1", "about": "“Antibacterial compounds” (AstraZeneca AB, priority 2002, published 2006)", "type_in_all_cases": "cell-based", "key": {"Streptococcus pneumoniae": {"test_system": "Streptococcus pneumoniae", "test": "MIC, agar with 5% defibrinated horse blood, streptococci", "settings": "agar + 5% horse blood, 10^4 CFU/spot, 37° C., 5% carbon dioxide, 48 hours", "procedure": "(§1) The following results were obtained on a standard in-vitro test system The activity is described in terms of the minimum inhibitory concentration (MIC) determined by the agar-dilution technique with an inoculum size of 10^4 CFU/spot. Typically, compounds are active in the range 0.01 to 256 μg/ml.\n(§2) Streptococci and enterococci were tested on agar supplemented with 5% defibrinated horse blood, an inoculum of 10^4 CFU/spot and an incubation temperature of 37° C. in an atmosphere of 5% carbon dioxide for 48 hours—blood is required for the growth of some of the test organisms. Fastidious Gram negative organisms were tested in Mueller-Hinton broth, supplemented with hemin and NAD, grown aerobically for 24 hours at 37° C., and with an innoculum of 5×10^4 CPU/well."}, "Haemophilus influenzae": {"test_system": "Haemophilus influenzae", "test": "MIC, fastidious Gram negative organisms in Mueller-Hinton broth", "settings": "Mueller-Hinton broth with hemin and NAD, aerobic, 24 hours, 37° C.", "procedure": "as §1, §2"}, "Moraxella catarrhalis": {"test_system": "Moraxella catarrhalis", "test": "MIC, fastidious Gram negative organisms in Mueller-Hinton broth", "settings": "Mueller-Hinton broth with hemin and NAD, aerobic, 24 hours, 37° C.", "procedure": "as §1, §2"}, "[1]": {"test_system": "Staphylococcus aureus MSQS (methicillin sensitive and quinolone sensitive)", "test": "MIC, agar dilution, staphylococci (MSQS strain)", "settings": "10^4 CFU/spot, 37° C., 24 hours", "procedure": "as §1\n(§3) Staphylococci were tested on agar, using an inoculum of 10^4 CFU/spot and an incubation temperature of 37° C. for 24 hours—standard test conditions for the expression of methicillin resistance."}, "Enterococcus faecium": {"test_system": "Enterococcus faecium", "test": "MIC, agar with 5% defibrinated horse blood, enterococci", "settings": "agar + 5% horse blood, 10^4 CFU/spot, 37° C., 5% carbon dioxide, 48 hours", "procedure": "as §1, §2"}, "[2]": {"test_system": "Staphylococcus aureus MRQR (methicillin resistant and quinolone resistant)", "test": "MIC, agar dilution, staphylococci (MRQR strain)", "settings": "10^4 CFU/spot, 37° C., 24 hours", "procedure": "as §1, §3"}, "[3]": {"test_system": "Linezolid Resistant Streptococcus pneumoniae", "test": "MIC, agar with 5% defibrinated horse blood, linezolid resistant streptococci", "settings": "agar + 5% horse blood, 10^4 CFU/spot, 37° C., 5% carbon dioxide, 48 hours", "procedure": "as §1, §2"}}, "data": [{"molecule": "O=C1O[C@@H](Cn2ccnn2)CN1c1ccc(-c2ccc(C3=NOC(CO)C3)c(F)c2)c(F)c1", "note": "(stereo partly drawn) [Example 4, (5R)-3-{2,3′-Difluoro-4′-[5-(hydroxymethyl)-4,5-dihydroisoxazol-3-yl]-1,1′-biphenyl-4-yl}-5-(1H-1,2,3-triazol-1-ylmethyl)-1,3-oxazolidin-2-one]", "values": [{"measurement": "MIC", "setting": "Streptococcus pneumoniae", "result": 0.13, "unit": "µg/mL"}, {"measurement": "MIC", "setting": "Haemophilus influenzae", "result": 4, "unit": "µg/mL"}, {"measurement": "MIC", "setting": "Moraxella catarrhalis", "result": 0.5, "unit": "µg/mL"}, {"measurement": "MIC", "setting": "[1]", "result": 0.5, "unit": "µg/mL"}, {"measurement": "MIC", "setting": "Enterococcus faecium", "result": 0.5, "unit": "µg/mL"}, {"measurement": "MIC", "setting": "[2]", "result": 0.5, "unit": "µg/mL"}, {"measurement": "MIC", "setting": "[3]", "result": 1, "unit": "µg/mL"}]}]}
